Laboratory results published in patent US3933800A, “New 3-formylrifamycin SV derivatives” (Gruppo Lepetit S.p.A., priority 1971, dated 1976).

Tests used:
[1] = system: RNA dependent DNA polymerase of murine sarcoma virus (endogenous) and DNA dependent DNA polymerase activity of purified enzymes; test: inhibition of murine sarcoma virus DNA polymerase (3H-dTTP incorporation); format: biochemical; conditions: at a concentration of 2-100 μg/ml or less; 60 min
Protocol: The inhibiting activity of the invention compounds has been tested on RNA dependent DNA polymerase of murine sarcoma virus (endogenous) and DNA dependent DNA polymerase activity of purified enzymes. The inhibition was tested according to the methods described by C. Gurgo et al., Nature, New Biology, 229, 111, 1971.
The effect of different concentrations of drugs on polymerase activity was determined by following 3H-dTTP (tritiated thymine deoxyriboside triphosphate) incorporation into the insoluble fraction. A typical example of the experimental procedures is the following: Isolation of virus and purification of viral polymerase
Virus was isolated and purified from murine sarcoma virus (Moloney isolate) transformed rat cells (78Al cells) and murine sarcoma virus (Harvey isolate) transformed mouse cells (MEH cells) as previously described (Green et al., Proc. Nat. Acad. Sci. USA 67. 385-393, 1970, Rokutanda et al., Nature, 227, 1026-1028, 1970). The virion polymerase was purified 20-40 fold by incubation of purified virus with 0.5% NP-40 (nonidet P-40) in 0.1 M NaCl, 0.01 M Tris buffer (pH 7.6), 0.001 M EDTA for 5 minutes at room temperature and zonal centrifugration in 15-30% sucrose gradients in 10 mM (millimoles) sodium phosphate buffer (pH 7.4), 2.5 mM MgCl2, 10 mM dithiothreitol, and 5% glycerol for 24 hours at 38.000 rpm in a Spinco SW41 rotor. The peak fractions of enzyme activity (13-17) of twenty-two fractions collected, were pooled, and stored at -70°C in 30% glycerol. DNA polymerase assay
Enzyme incubation was performed for 1 hour at 37°C in 100 μl of reaction mixture containing 40 mM Tris buffer (pH 8.0), 5mM dithiothreitol, 30 mM NaCl, 2.5 mM MgCl2, 0.1 mM daTP, dGTP, dCTP, and 10 μCi of ^3 H-dTTP (12-18 Ci/mmole) as described by Green et al., in Proc. Nat. Acad. Sci. US 67, 385-393, 1970. The reaction was terminated by the addition of 150 μ l of 1N perchloric acid. Calf thymus DNA (100 μg) were added as carrier; the radioactive DNA product was processed as described in the two papers mentioned above.
Endogenous RNA dependent DNA polymerase activity was measured after the addition of 0.01% PN-40 to purified virus at the time of assay. The DNA polymerase activity of purified viral polymerase was measured with 2 μg of poly d(A-T) as template and no NP-40. Test for inhibition by rifamycin derivatives
Rifamycin derivatives were dissolved in dimethylsulfoxide (DMSO) at a concentration of 5 mg/ml and stored at 4°C. Inhibition of the endogenous RNA dependent DNA polymerase activity was tested by adding 2 μ l of derivative appropriately diluted in DMSO or 2 μ l of DMSO (control) to the assay mixture prior to addition to disrupted virus which contained 15 to 30 μg of viral protein. Enzyme incubation was performed for 60 minutes at 37°C. Inhibition of purified enzyme was tested by pre-incubation of 2 μl of derivative of DMSO with 30 μl of enzyme (1 to 2 μg protein) for 10 minutes at 37°C; then 70 μ l of substrate mixture were added and the mixture further incubated and processed as described above.

leukemic polymerase = test: inhibition of DNA polymerase of human leukemic blood lymphoblasts; format: biochemical; conditions: synthetic RNA template (poly rA.rU)
Excerpt: Similar results were found by using tumor cell polymerases of human origin. In this case the inhibiting activity was studied also on normal cells polymerases to characterize a selective effect. Representative rifamycin derivatives of formula I have been evaluated for their effects on […] purified DNA polymerase isolated from (I) human normal (PHA stimulated) blood lymphocytes (2) a lymphoblast cell line (derived from a normal donor) and (3) human leukemic blood lymphoblast. Synthetic and/or native templates were used.
Leukemic lymphoblasts were isolated from the peripheral blood of patients with acute lymphocytic leukemia (ALL) by leukophoresis. The cells were washed and erythrocytes removed by hypotonic lysis. Normal lymphocytes were obtained from the peripheral blood from healthy donors after removal of granulocytes by nylon column chromatography. They were stimulated with phytohemagglutinin (PHA) for 72 hours as described before (Gallo et al., Nature, 228, 927, 1970; Gallo et al. Science, 165, 400, 1968) in order to maximize DNA polymerase activity.
Cellular DNA polymerase were extracted and purified from normal blood (PHA stimulated) lymphocytes, and leukemic blood lymphocytes and 1788 lymphoid cells by homogenization in hypotonic buffer followed by Triton X 100 and/or high salt extraction of the extraylsosomal pellet. After differential centrifugation cellular extracts were further purified by DEAE cellulose, phosphocellulose, and Sephadex G 200 column chromatography. DNA polymerase Assays
DNA polymerase assays were carried out in a final volume of 100 μ l. The assay mixture contained Tris-HCl buffer, pH 8.3, 50 mM; MgAc, 6.0 mM; dithiothretiol, 8.0 mM; NaCl, 60 mM. […]
In these cases reactions were initiated by adding enzyme to the complete reaction mixture which included the inhibitor. […] The products were collected on Millipore filter, washed extensively with 5% TCA and 1 ml. of DMSO-ethanol-0.1 M NaCl mixture (0.5:70;29.5), dried and counted in 2 ml. of BBS3 (Beckman) and 10 ml. of liquifluor (New England Nuclear) in a Packard liquid scintillation counter.

[2] = system: polymerase from murine leukemia virus (reverse transcriptase); test: inhibition of polymerase from murine leukemia virus; format: biochemical; conditions: endogenous 70S RNA template
Protocol: The inhibiting effect of reverse transcriptase has been confirmed also by test on polymerase from murine leukemia virus. Murine leukemia virus RNA polymerase was prepared from TRITON X 100 disrupted virions as described by Gallo et al., Nature, New Biology, 232, 141 (1971). Virus of both Rauscher and Moloney types were previously purified by banding in the 1.16 g/ml region of a sucrose density gradient after initial low speed centrifugation to remove cellular debris and cushioning on 60% sucrose through 20% sucrose. Final concentration of virus preparation was at 10^11 particles/ml. As template endogenous 70S RNA was used.

bacteria = conditions: cited from earlier work
[3] = system: bacteria which had become resistant to the other rifamycins; conditions: namely rifampicin; cited from earlier work

| Structure (SMILES) | incorporation of 3H-dTTP relative to control tests [1] | susceptibility compared with synthetic DNA template (leukemic polymerase) | concentration giving inhibition of about 50 percent [2] | antibacterial activity (bacteria) | effect against resistant bacteria [3] |
| --- | --- | --- | --- | --- | --- |
| CCCCON=Cc1c2c(O)c3c(O)c(C)c4c(c3c1O)C(=O)C(C)(OC=CC(OC)C(C)C(OC(C)=O)C(C)C(O)C(C)C(O)C(C)C=CC=C(C)C(=O)N2)O4 (stereo not drawn) [Example 4] | less than 10% |  |  |  |  |
| CCCCCON=Cc1c2c(O)c3c(O)c(C)c4c(c3c1O)C(=O)C(C)(OC=CC(OC)C(C)C(OC(C)=O)C(C)C(O)C(C)C(O)C(C)C=CC=C(C)C(=O)N2)O4 (stereo not drawn) [Example 5] | less than 10% | even more susceptible | 10 to 25 µg/mL |  |  |
| CCCCCCCCON=Cc1c2c(O)c3c(O)c(C)c4c(c3c1O)C(=O)C(C)(OC=CC(OC)C(C)C(OC(C)=O)C(C)C(O)C(C)C(O)C(C)C=CC=C(C)C(=O)N2)O4 (stereo not drawn) [Example 6] | less than 10% | even more susceptible | 10 to 25 µg/mL |  |  |
| COC1C=COC2(C)Oc3c(C)c(O)c4c(O)c(c(C=NOCCc5ccccc5)c(O)c4c3C2=O)NC(=O)C(C)=CC=CC(C)C(O)C(C)C(O)C(C)C(OC(C)=O)C1C (stereo not drawn) [Example 13] | less than 10% |  |  |  |  |
| COC1C=COC2(C)Oc3c(C)c(O)c4c(O)c(c(C=NOCCCc5ccccc5)c(O)c4c3C2=O)NC(=O)C(C)=CC=CC(C)C(O)C(C)C(O)C(C)C(OC(C)=O)C1C (stereo not drawn) [Example 14] | less than 10% | even more susceptible | 10 to 25 µg/mL |  |  |
| COC1C=COC2(C)Oc3c(C)c(O)c4c(O)c(c(C=NOC(c5ccccc5)c5ccccc5)c(O)c4c3C2=O)NC(=O)C(C)=CC=CC(C)C(O)C(C)C(O)C(C)C(OC(C)=O)C1C (stereo not drawn) [Example 16] | less than 10% |  |  |  |  |
| CON=Cc1c2c(O)c3c(O)c(C)c4c(c3c1O)C(=O)C(C)(OC=CC(OC)C(C)C(OC(C)=O)C(C)C(O)C(C)C(O)C(C)C=CC=C(C)C(=O)N2)O4 (stereo not drawn) [O-methyl] |  |  |  | good antibacterial activity | practically no effect |
| COC1C=COC2(C)Oc3c(C)c(O)c4c(O)c(c(C=NOCCN5CCOCC5)c(O)c4c3C2=O)NC(=O)C(C)=CC=CC(C)C(O)C(C)C(O)C(C)C(OC(C)=O)C1C (stereo not drawn) [O-morpholinoethyl] |  |  |  | good antibacterial activity | practically no effect |
| COC1C=COC2(C)Oc3c(C)c(O)c4c(O)c(c(C=NO)c(O)c4c3C2=O)NC(=O)C(C)=CC=CC(C)C(O)C(C)C(O)C(C)C(OC(C)=O)C1C (stereo not drawn) [oxime of 3-formylrifamycin SV] |  |  |  | good antibacterial activity | practically no effect |
